Measurements reported in patent publication US20110117195A1, “METHOD FOR IMPROVING MYOCARDIAL INFARCTION BY INTRAMYOCARDIAL OR TRANSENDOCARDIAL INJECTION OF PEPTIDE NANOFIBERS” (National Cheng Kung University, priority 2009, published 2011).

Experiments:
Assay type in all cases: in vivo
[1] = system: Lanyu mini-pig models of experimental myocardial infarction (MI); assay: Cardiac catheterization (hemodynamic parameters) after coronary artery ligation in mini-pigs
Method: (§1) Sexually matured Lanyu mini-pigs (about 5 months old, body weight: 21.8±3.1 kg), were divided into 3 groups: the first group is sham operation, suturing was performed without ligation (n=4); the second group is mid-left coronary artery ligation (for simulating myocardial infarction, MI) immediately followed with injection of normal saline solution (MI+NS, n=4); and the third group is mid-left coronary artery ligation immediately followed with injection of 1% peptide nanofibers solution (MI+NFs, n=5) in the entire infarcted area with a total of 2 ml NFs divided by 40 delivery sites (50 ul for each site), wherein the sequence of peptide NFs is AcN-RARADADARARADADA-NH2. Cardiac functions were assessed by echocardiography immediately after MI and together with cardiac catheterization 4 weeks later.
(§2) In the preferred embodiment of the present invention, the peptide nanofibers solution contains peptide nanofibers which can form a biologically compatible peptide hydrogel, wherein the biologically compatible peptide hydrogel is prepared by: dissolving powders of the self-assembling peptide nanofibers in a buffer solution, such as pH 7.4 phosphate buffered saline (PBS) solution; and mixing the powders of the self-assembling peptide nanofibers with the buffer solution by sonication (100 W, 10 mins), so as to obtain a hydrogel solution of the biologically compatible peptide hydrogel (i.e. the peptide nanofibers solution), wherein the percentage of the self-assembling peptide nanofibers in the solution can be 0.1-10% by weight of the solution, preferably 0.5-5% by weight, and more preferably 1.0% by weight; and wherein the volume of the solution of the biologically compatible peptide hydrogel is preferably 0.1-10 ml, and more preferably 2 ml. In the embodiment, the percentage of the self-assembling peptide nanofibers in the solution is 1.0% by weight, and the volume of the solution of the biologically compatible peptide hydrogel is 2 ml. Meanwhile, the buffer solution (PBS) is added with monovalent metal cation compound of a concentration sufficient to promote the self-assembly of the self-assembling peptide nanofibers, wherein the monovalent metal cation is selected from the group consisting of: lithium (Li^+), sodium (Na^+) and potassium (K^+). In the embodiment, the monovalent metal cation compound is sodium […].
(§3) Besides, the pharmaceutical composition of the second and third groups is injected to a plurality of delivery sites in the entire infarcted area of myocardium tissue, respectively, wherein the number of the delivery sites is preferably ranged between 10 and 100, and more preferably 40, without limitation thereto. The plurality of delivery sites in the entire infarcted area is advantageous to increase the distribution density to support materials (e.g. peptide nanofibers). In addition, the infarcted area of myocardium tissue is preferably a mid-left portion of myocardium tissue of an injured heart with myocardial infarction, but also can be any infarcted area of the heart. The self-assembling peptide nanofibers (AcN-RARADADARARADADA-NH2) are 16 amino acids in length, but also can be 8-200 amino acids in length, and preferably 12-32 amino acids in length. […]

[2] = system: Lanyu mini-pig models of experimental myocardial infarction (MI); assay: Echocardiography after coronary artery ligation in mini-pigs
Method: as §1, §2, §3

[3] = system: Lanyu mini-pig models of experimental myocardial infarction (MI); assay: Immunohistological index (myocardial capillary density) after coronary artery ligation in mini-pigs
Method: as §1, with “later. […]” for “later.”

[4] = Table 1, 28 days after infarction, 2 ml intramyocardial in 40 sites, in mmHg/s (unit assumed)
[5] = Table 1, 28 days after infarction, 2 ml intramyocardial in 40 sites
[6] = one month after MI, P<0.01 vs MI+NS

In the case of “AcN-RARADADARARADADA-NH2 (Ac-RARADADARARADADA-NH2) [MI + NFs, self-assembling peptide nanofibers forming a hydrogel]”, the “Emax (maximal chamber elasticity)” value ([1]; Table 1, 28 days after infarction, 2 ml intramyocardial in 40 sites, in mmHg/mL (unit assumed)) is reported as 2.80 ± 1.43, the “+dP/dt Max” value [1, 4] is reported as 1458 ± 154 and the “−dP/dt Max” value [1, 4] is reported as −1850 ± 94. The “diastolic function and ventricular remodeling” value ([1]; one month after MI, end-diastolic and end-systolic volumes, −dP/dt Max, Emax) was “significantly improved”, the “systolic function (ejection fraction and +dP/dt Max) compared to the (MI+NS) group” value ([1]; one month after MI, no significant difference) was “only modest improvement” and the “E.F. (ejection fraction)” value [2, 5] was 47 ± 8. The IVS-D (thickness of inter-ventricular septum, diastolic) [2, 5] was 0.6 ± 0.12 cm, the IVS-S (thickness of inter-ventricular septum, systolic) [2, 5] was 0.7 ± 0.13 cm and the thickness of inter-ventricular septum on diastolic (IVS-D) phase [2, 6] was 0.6 ± 0.12 cm. The thickness of inter-ventricular septum on systolic (IVS-S) phase [2, 6] was 0.7 ± 0.13 cm, the “M.C.D. (myocardial capillary density)” value [3, 5] was 286 ± 179 number/mm^2 and the “myocardial capillary density (M.C.D.)” value ([3]; one month after MI, in words) was “significantly increased”.
